Where no end group is shown, it is not given here.
How the values were obtained:
[1] = system: GST-fused LC8; assay: GST pull-down of LC8 and sLCA5; type: binding; conditions: GST-LC8 bait, MBP-, 6x-His-fused sLCA5 prey, PBS, 1 mM DTT, room temperature; result in words
Method: For the pull-down experiments, GST-fused LC8 was used as bait, and MBP-, 6x-His-fused LCA5 variants as prey. For controls, GST and MBP were used. Proteins were expressed in 100 ml cultures of E. coli BL21 (DE3) Rosetta cells as described above. Cells were harvested, resuspended in 5 ml PBS supplemented with 1 mg/ml lysozyme and 1 mM DTT, sonicated and clarified by centrifugation. 20 μl of Glutathione Sepharose 4B (Macherey–Nagel) (75%) resin was used for each experiment. Baits were incubated with the resin for 1 h at room temperature, then washed with PBS supplemented with 1 mM DTT. Prey proteins were added and incubated for one hour. The beads were washed and eluted by boiling in a 2 × SDS sample buffer and analyzed in tricine SDS page according to the protocol of Schagger et al[43].

[2] = biological target: T1, LC8 (Homo sapiens, UniProt Q96FJ2); assay: isothermal titration calorimetry, LCA5 peptide injected to LC8; type: binding; conditions: MicroCal PEAQ-ITC, PBS pH 7.4, 1 mM TCEP, 25 °C; peptide injected 18 x 2 μl into LC8
T1 construct: 6xHis (N); made in house; host or cells: E. coli BL21 (DE3) Rosetta
Method: (§1) LC8 and MBP-fused LCA5 constructs were prepared in PBS supplemented with 1 mM TCEP. Before measurement, protein samples were dialyzed overnight in PBS pH 7.4 (Orange Scientific, OrDial D14 membrane). Peptides were diluted from stock with the buffer used for dialysis. The concentration of samples was determined based on absorbance at 280 nm in the case of proteins, and 205 nm for the peptide. Experiments were performed using MicroCal PEAQ-ITC (Malvern Panalytical), LCA5 peptides were measured at 25 °C, proteins were analyzed at 37 °C. Lebercilin peptide was injected into the cell 18 times 2 μl volumes, with 5 min timing between injections. In case of the protein, LCA5 was placed in the sample cell, and LC8 was injected during 37 injections, 1 μl each. The results were evaluated using MicroCal PEAQ-ITC Analysis Software.

[3] = biological target: T1, LC8; assay: LC8 binding of the second (CQS) motif at the peptide level; conditions: residues 317–324 of LCA5; method not stated; result in words
Method: as §1, with “In case of the protein, LCA5 was placed in the sample cell, and LC8 was injected during 37 injections, 1 μl each.” left out
Fluorescence polarization experiments were carried out at 25 °C in PBS supplemented by 2 mM TCEP and 0.05% Brij using a Synergy H4 (BioTek Instruments) plate reader. […] Briefly, 50 nM labeled BMF peptide was mixed with LC8 in a concentration to achieve 80% saturation, determined by direct titration (12 μM at 80% saturation). Subsequently, the above-mentioned complex was titrated with a two-fold dilution series of competitor LCA5 peptide (DLCTKGVQTME) (start at 500 μM) and the decrease of polarization was recorded. To determine the Kd of the LCA5-peptide-LC8 complex, first the Kd of the BMF-LC8 complex was calculated. […]

[4] = biological target: T1, LC8; assay: direct fluorescence polarization titration of labeled BMF peptide with LC8; type: binding; conditions: 50 nM FITC-labeled BMF, PBS, 2 mM TCEP, 0.05% Brij, 25 °C
Method: Fluorescence polarization experiments were carried out at 25 °C in PBS supplemented by 2 mM TCEP and 0.05% Brij using a Synergy H4 (BioTek Instruments) plate reader. N-terminally fluorescein 5-isothiocyanate (FITC) labeled, known binding peptide of LC8, BMF (TSQEDKATQTL) was used as a reporter peptide to form LC8-BMF complex and LCA5 was applied to compete the BMF peptide. Briefly, 50 nM labeled BMF peptide was mixed with LC8 in a concentration to achieve 80% saturation, determined by direct titration (12 μM at 80% saturation). Subsequently, the above-mentioned complex was titrated with a two-fold dilution series of competitor LCA5 peptide (DLCTKGVQTME) (start at 500 μM) and the decrease of polarization was recorded. To determine the Kd of the LCA5-peptide-LC8 complex, first the Kd of the BMF-LC8 complex was calculated. The polarization signal recorded at direct titration of BMF peptide with LC8 was plotted against the concentration of LC8. Then the Kd of the BMF-LC8 complex was calculated by the fitting of a direct binding equation in Origin 8. To determinate the Kd of the competitor peptide, the measured polarization was plotted against the concentration of LCA5 peptide in the competitive titration and the data was fitted by the competitive binding equation in Origin 8 where Kd of the BMF-LC8 complex was one of the parameters of the competitive equation. […]

[5] = biological target: T1, LC8; conditions: literature, ref (6)-(10) of supplement, cited from earlier work
Text: According to the standard model of LC8 interactions, the dimeric interface of LC8 presents two interaction sites for partners which also form dimers, implying a 1:1 stoichiometry. Partners with two adjacent binding motifs, like ANA2, follow a 1:2 stoichiometry by binding two LC8[18]. Intriguingly, we observed a 2:1 LCA5:LC8 stoichiometry for the ΔCQS and the ΔVQT mutants, which means that one LC8 dimer binds four LCA5 chains (Supplementary Table S1). A reasonable interpretation is that the native LCA5 is dimeric and thus a pair of LCA5 dimers bind to one dimeric LC8. In such a situation, one i ... || page 10: Composition of complexes Number of LC8 Number of Ratio of LCA5 LC8 binding monomeric binding monomeric LC8 in monomers to LC8 Gene name sites partners in complex complex monomers SWA (6) 1 2 2 1:1 DYNC1I1 (7) 1 2 2 1:1 WDR34-WDR60 3 1+1 6 1:3 (8) ANA2 (9) 2 2 4 1:2 ASCIZ (10) 11 2 22 1:11 sLCA5-WT 2 4 4 1:1 sLCA5-single 1 4 2 2:1 mutants Supplementary Table S1. Stoichiometries of various LC8 binding partners in complex with LC8. Known LC8 binding partners according to literature data always form dimers upon LC8 binding. The stoichiometry is basically 1:1 in case of one LC8 binding sit ...

T1 sequence (Q96FJ2 whole entry): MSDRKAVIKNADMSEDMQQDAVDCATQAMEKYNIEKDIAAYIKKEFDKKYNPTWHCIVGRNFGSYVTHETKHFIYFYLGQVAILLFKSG

## CAAAAAAM: sLCA5 with further alanine mutations introduced into the VQT motif
[1]
  interaction with LC8 (GST pull-down): persisted despite the mutations

## DLCTKGVQTME [LCA5 peptide]
[2]
  Kd: 2600 nM

## KNAACQSD
[3]
  binding of the second motif to LC8 at the peptide level: could not be verified at the peptide level

## TSQEDKATQTL [BMF]
[4]
  LC8 concentration at 80% saturation of labeled BMF peptide: 12 µM

## WDR34-WDR60: known LC8 binding partner, literature
[5]; composition of complexes
  Number of monomeric LC8 in complex: 6
  Number of monomeric binding partners in complex: 1+1
[5]
  LC8 binding sites: 3

— paper PMC9481538, “The interaction between LC8 and LCA5 reveals a novel oligomerization function of LC8 in the ciliary-centrosome system” (Scientific Reports, 2022)
